Data from US8501981B2, “CXCR2 inhibitors” (SANOFI, priority 2006, dated 2013).

Each compound was assayed against human CXCR2 (Homo sapiens (Human), UniProt P25025) (assay: Determination of CXCR2 inhibition: Calcium Fluorescence Assay (FLIPR)). Conditions: chemokine IL-8; CHO-K1 cells stably transfected with human CXCR2 and Gα16.
Chain of human CXCR2 (P25025 whole entry): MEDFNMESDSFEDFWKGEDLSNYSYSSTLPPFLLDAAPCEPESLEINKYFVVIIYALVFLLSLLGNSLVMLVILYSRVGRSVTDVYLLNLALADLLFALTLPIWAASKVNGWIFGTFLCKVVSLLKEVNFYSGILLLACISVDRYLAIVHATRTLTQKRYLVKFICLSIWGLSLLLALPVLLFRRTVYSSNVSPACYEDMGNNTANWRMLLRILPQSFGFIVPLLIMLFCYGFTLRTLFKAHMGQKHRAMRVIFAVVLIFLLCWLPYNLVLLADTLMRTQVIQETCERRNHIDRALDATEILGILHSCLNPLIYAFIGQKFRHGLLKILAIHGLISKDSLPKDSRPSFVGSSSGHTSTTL
Type: cell-based
Source text: Determination of CXCR2 inhibition: Calcium Fluorescence Assay (FLIPR)
The assay is based on the detection of intracellular calcium changes detected by the selective, calcium-chelating dye, Fluo-4 (Molecular Probes). A large fluorescence intensity increase is observed upon calcium association with Fluo-4. […] By co-expressing the CXCR2 receptor and the promiscuous Gα16 protein, activation of this chemokine receptor is directed into this phospholipase C cascade resulting in intracellular calcium mobilization.
The CHO—K1 cells stably transfected with human CXCR2 and the promiscuous Gα16 protein were maintained in a log phase of growth at 37° C. and 5% CO2 in the following media: Iscove's, 10% FBS, 1× Penicillin-Streptomycin, 400 μg/mL g418 and 350 μg/mL Zeocin. Approximately 24-48 hours prior to the assay, 20,000-30,000 cells/well were plated onto a 96-well black/clear bottomed assay plate (Becton Dickinson) with a well volume of 180 μl. For dye-loading the culture medium was carefully removed and replaced by 100 μl/well dye solution (4 μM Fluo-4 in 135 mM NaCl, 5 mM KCl, 1 mM magnesium sulphate, 5 mM glucose, 20 mM hepes, 2.5 mM probenecid; pH 7.4). Cells were incubated for 1 h at 37° C., and then washed 3× with buffer. After washing 90 μl buffer/well were left. Increasing concentrations of compound was added in 45 μl buffer (4× concentrated) followed by 10 min incubation at 37° C. Then the chemokine (10-100 nM) was applied in 45 μl buffer (4× concentrated) and the measurement performed for 2 min. The IC50 value of a compound was determined by calculation of % inhibition of total calcium response to the chemokine.
With `CC(CCc1ccccc1)Oc1c(C(=O)NC2(C(=O)O)CCCC2)ccc2ccccc12` (centres unmarked) [Example 52, 1-{[1-(1-Methyl-3-phenyl-propoxy)-naphthalene-2-carbonyl]-amino}-cyclopentanecarboxylic acid] the IC50 was 0.92 µM. `CC(C)(NC(=O)c1ccc2ccccc2c1OCCOc1ccc(F)c(Cl)c1)C(=O)O` [Example 73, 2-({1-[2-(3-Chloro-4-fluoro-phenoxy)-ethoxy]-naphthalene-2-carbonyl}-amino)-2-methyl-propionic acid] was tested, and the IC50 was 1.25 µM. `CC(C)CC(C)(NC(=O)c1ccc2ccccc2c1OCCOc1ccccc1)C(=O)O` (centres unmarked) [Example 55, 2,4-Dimethyl-2-{[1-(2-phenoxy-ethoxy)-naphthalene-2-carbonyl]-amino}-pentanoic acid] showed an IC50 of 2.56 µM. `O=C(NC1(C(=O)O)CCC1)c1ccc2ccccc2c1OCCC1CCCCC1` [Example 97, 1-{[1-(2-Cyclohexyl-ethoxy)-naphthalene-2-carbonyl]-amino}-cyclobutanecarboxylic acid] showed an IC50 of under 10 µM. Work on `CC(C)(NC(=O)c1cc(F)c2ccccc2c1OCCCc1ccccc1)C(=O)O` [Example 18, 2-{[4-Fluoro-1-(3-phenyl-propoxy)-naphthalene-2-carbonyl]-amino}-2-methyl-propionic acid] yielded an IC50 of under 10 µM. `CC(C)(NC(=O)c1ccc2ccccc2c1C#CCOc1ccccc1)C(=O)O` [Example 165, 2-Methyl-2-{[1-(3-phenoxy-prop-1-ynyl)-naphthalene-2-carbonyl]-amino}-propionic acid] was tested, and the IC50 was under 10 µM. For `CC(C)(NC(=O)c1sc2ccccc2c1OCCOc1ccccc1)C(=O)O` [Example 46, 2-Methyl-2-{[3-(2-phenoxy-ethoxy)-benzo[b]thiophene-2-carbonyl]-amino}-propionic acid], the IC50 was 1.76 µM. `CC(C)(NC(=O)c1ccc2ccccc2c1OCCc1ccccc1)C(=O)O` [Example 126, 2-Methyl-2-[(1-phenethyloxy-naphthalene-2-carbonyl)-amino]-propionic acid] showed an IC50 of under 10 µM. `CC(CCc1ccccc1)Oc1c(C(=O)NC(C)(C)C(=O)O)ccc2ccccc12` (centres unmarked) [Example 140, 2-Methyl-2-{[1-(1-methyl-3-phenyl-propoxy)-naphthalene-2-carbonyl]-amino}-propionic acid] was tested, and the IC50 was under 10 µM. For `CCCCC(CC)(NC(=O)c1ccc2ccccc2c1OCCCC1CCCCC1)C(=O)O` (centres unmarked) [Example 119, 2-{[1-(3-Cyclohexyl-propoxy)-naphthalene-2-carbonyl]-amino}-2-ethyl-hexanoic acid], the IC50 was under 10 µM. `CC(C)(NC(=O)c1ccc2ccccc2c1C#CCCCc1ccccc1)C(=O)O` [Example 166, 2-Methyl-2-{[1-(5-phenyl-pent-1-ynyl)-naphthalene-2-carbonyl]-amino}-propionic acid] showed an IC50 of 1.67 µM. `O=C(NC1(C(=O)O)CCC1)c1ccc2ccccc2c1OCCOc1ccccc1` [Example 100] gave an IC50 of under 10 µM. `CC(C)(NC(=O)c1cc(F)c2ccccc2c1OCCc1ccccc1)C(=O)O` [Example 17, 2-[(4-Fluoro-1-phenethyloxy-naphthalene-2-carbonyl)-amino]-2-methyl-propionic acid] gave an IC50 of under 10 µM. `O=C(NC1(C(=O)O)CCC1)c1ccc2ccccc2c1OCCCc1ccccc1` [Example 99, 1-{[1-(3-Phenyl-propoxy)-naphthalene-2-carbonyl]-amino}-cyclobutanecarboxylic acid] gave an IC50 of under 10 µM. `CCCCC(CC)(NC(=O)c1ccc2ccccc2c1OCCCc1ccccc1)C(=O)O` (centres unmarked) [Example 116, 2-Ethyl-2-{[1-(3-phenyl-propoxy)-naphthalene-2-carbonyl]-amino}-hexanoic acid] was tested, and the IC50 was under 10 µM. For `CC(C)(NC(=O)c1ccc2ccccc2c1OCCCc1ccc(Cl)cc1)C(=O)O` [Example 106, 2-({1-[3-(4-Chloro-phenyl)-propoxy]-naphthalene-2-carbonyl}-amino)-2-methyl-propionic acid], the IC50 was under 10 µM. `O=C(NC1(C(=O)O)CCC1)c1ccc2ccccc2c1OCCOc1ccc(F)cc1` [Example 105, 1-({1-[2-(4-Fluoro-phenoxy)-ethoxy]-naphthalene-2-carbonyl}-amino)-cyclobutanecarboxylic acid] showed an IC50 of 3.23 µM. `CC(C)(NC(=O)c1cc(F)c2ccccc2c1OCCOc1ccccc1)C(=O)O` [Example 20, 2-{[4-Fluoro-1-(2-phenoxy-ethoxy)-naphthalene-2-carbonyl]-amino}-2-methyl-propionic acid] showed an IC50 of under 10 µM. In the case of `CCCCC(CC)(NC(=O)c1ccc2ccccc2c1OCCOc1ccccc1)C(=O)O` (centres unmarked) [Example 117, 2-Ethyl-2-{[1-(2-phenoxy-ethoxy)-naphthalene-2-carbonyl]-amino}-hexanoic acid], the IC50 is reported as under 10 µM. `C[C@@H](NC(=O)c1ccc2ccccc2c1OCCc1ccc(F)cc1)C(=O)O` [Example 130, (R)-2-({1-[2-(4-Fluoro-phenyl)-ethoxy]-naphthalene-2-carbonyl}-amino)-propionic acid] showed an IC50 of under 10 µM.
